Test results reported in article PMC3578829, “A Small Molecule (Pluripotin) as a Tool for Studying Cancer Stem Cell Biology: Proof of Concept” (PLoS ONE, 2013).

Tests used:
phospho-ERK1/2 = assay: Immunoblotting of phospho-ERK1/2 relative to total ERK1/2 in HT29; format: cell-based
Protocol: To determine if SC-1 reached the same target in the treated colon tumor lines, changes in abundance of phospho-ERK 1/2 (p-ERK) and total ERK1/2 protein were evaluated by immunoblotting at time points similar to those previously studied (Figure 3A). In the HT29 treated tumor line, phospho-ERK 1/2 protein levels (relative to total ERK1/2 protein levels) were decreased in 5 min (67±0.06% of control value), reached a trough at 1 hr (46±0.06% of control), and remained decreased during the remainder of the time course (4 hrs, 68±0.10% of control value). Thus, it is likely SC-1 is reaching its cognate molecular target in the HT29 tumor line.
(§1) Standard protein electrophoretic techniques were followed using previously published protocols. For these studies, the colon lines were cultured for 5 days with and without treatments, harvested with trypsin (0.25% trypsin 0.5 mM EDTA, Invitrogen), counted and lysed with a whole cell lysis buffer (10 mM Tris, 1.0 mM EDTA, 50 mM NaCl, 0.5% deoxycholate, 0.5% NP-40, 0.5% SDS, 1.0 mM PMSF, and aprotonin and a cocktail of phosphatase and protease inhibitors). The whole cell lysate was heated to 100°C for 10 min and then fractionated (1000 g, 10 min, 4°C). Protein concentrations were measured with the Pierce BCA Protein Assay. Twenty to 40 µg of protein lysate per lane were loaded onto 10% SDS polyacrylamide gels (Ready-Gels, Biorad) with Laemmli buffer. For immunoblotting, the primary antibodies were diluted in Tween/Tris wash buffer (0.1 mM Tris-HCl pH 7.5, 2.5% Tween-20, 150 mM NaCl) and 5% BSA or nonfat dry milk and incubated overnight at 4°C. Visualization of specific bands was accomplished with an alkaline phosphatase-labeled secondary anti-immunoglobulin antibody and the ECF Chemifluorescent reagent (GE Amersham). Pixel intensity of the imaged bands was measured using STORM (GE Amersham) and Image Quant Software. Normalization for loading was accomplished by reprobing with an anti-actin antibody, quantification of pixel intensity and data normalization.

OCT4 = assay: Immunoblotting of OCT4 in HCC-2998; format: cell-based; details: 0.1 µM SC-1
Protocol: as §1

CHK2 = CHK2 (Homo sapiens, UniProt O96017); assay: In vitro kinase inhibition assay (same assay as RSK2); format: biochemical
CHK2, sequence (O96017 whole entry, species assumed, the tested form may be a part): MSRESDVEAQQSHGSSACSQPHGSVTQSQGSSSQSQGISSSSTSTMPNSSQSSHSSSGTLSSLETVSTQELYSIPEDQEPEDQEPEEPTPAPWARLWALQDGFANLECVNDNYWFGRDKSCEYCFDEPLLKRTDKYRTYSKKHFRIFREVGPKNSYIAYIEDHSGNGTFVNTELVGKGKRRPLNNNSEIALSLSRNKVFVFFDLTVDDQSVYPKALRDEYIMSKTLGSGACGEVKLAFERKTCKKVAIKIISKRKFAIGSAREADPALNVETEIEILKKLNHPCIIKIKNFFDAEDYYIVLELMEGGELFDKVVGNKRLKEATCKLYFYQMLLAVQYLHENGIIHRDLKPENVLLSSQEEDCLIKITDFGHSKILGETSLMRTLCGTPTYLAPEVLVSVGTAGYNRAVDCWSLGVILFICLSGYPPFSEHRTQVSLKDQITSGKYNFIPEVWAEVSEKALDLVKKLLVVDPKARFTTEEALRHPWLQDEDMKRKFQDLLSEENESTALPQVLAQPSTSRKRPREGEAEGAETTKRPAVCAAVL
Protocol: (§2) RSK2 (90 kD ribosomal S6 kinase), a kinase with both a N- and C-terminal functional domains, phosphorylates multiple targets and is phosphorylated by ERK1/2, another SC-1 target. As a downstream effector, RSK2 signals many cellular behaviors including cell survival, growth, proliferation, and migration. […] Potential inhibitory activity of SC-1 on a random selection of other protein kinases (Aurora kinase B, CHK1, and CHK2) was also evaluated in the same assay and no effect was found (Figure 4A). To determine if activity of related (to RSK2) protein kinases in the AGC kinase family was inhibited by SC-1, further studies were conducted (Table 3). […] Because SC-1 inhibited these selected kinases in the micromolar range and the kinase assay is distinct from the one reporting data in Figure 4A, the positive EC50 value for Abl1 kinase was reported in Table 3 as well. These findings were consistent with predictions reported by Okram et al..
(§3) The RSK2 in vitro kinase inhibition assay utilized was a modification of protocols established by Nguyen et al.. Additional protocols that confirmed the results depicted in Figure 4 and evaluated kinase inhibitory activity in a random selection of protein kinases (Table 3) were conducted at Reaction Biology Corporation (Malvern, PA). This was a miniaturized ^33P-based screening assay.

Aurora kinase B = Aurora kinase B (Homo sapiens, UniProt Q96GD4); assay: as above; format: biochemical
Aurora kinase B, sequence (Q96GD4 whole entry, species assumed): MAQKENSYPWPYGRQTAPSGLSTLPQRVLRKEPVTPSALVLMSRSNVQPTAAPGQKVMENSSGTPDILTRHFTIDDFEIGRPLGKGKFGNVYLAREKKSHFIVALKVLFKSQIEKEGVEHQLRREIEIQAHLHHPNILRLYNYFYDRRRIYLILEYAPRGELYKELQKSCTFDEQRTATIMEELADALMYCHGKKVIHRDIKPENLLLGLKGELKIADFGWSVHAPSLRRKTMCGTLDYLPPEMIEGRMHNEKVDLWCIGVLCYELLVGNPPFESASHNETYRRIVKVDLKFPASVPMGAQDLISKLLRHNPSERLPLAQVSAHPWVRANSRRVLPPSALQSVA
Protocol: as §2, §3

CHK1 = CHK1 (Homo sapiens, UniProt O14757); assay: as above; format: biochemical
CHK1, sequence (O14757 whole entry, species assumed): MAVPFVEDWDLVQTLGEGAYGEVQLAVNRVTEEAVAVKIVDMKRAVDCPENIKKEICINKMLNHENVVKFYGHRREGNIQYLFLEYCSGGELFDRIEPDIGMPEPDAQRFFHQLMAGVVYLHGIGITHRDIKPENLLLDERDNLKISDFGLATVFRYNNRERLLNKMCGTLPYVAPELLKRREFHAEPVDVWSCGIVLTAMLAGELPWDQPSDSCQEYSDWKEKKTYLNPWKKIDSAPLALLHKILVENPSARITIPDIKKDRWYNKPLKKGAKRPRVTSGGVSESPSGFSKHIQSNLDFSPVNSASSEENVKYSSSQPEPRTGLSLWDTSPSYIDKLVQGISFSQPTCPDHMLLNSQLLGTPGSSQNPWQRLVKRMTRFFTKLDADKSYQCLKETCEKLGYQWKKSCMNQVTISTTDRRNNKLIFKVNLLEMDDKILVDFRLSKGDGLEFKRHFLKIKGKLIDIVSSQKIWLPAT
Protocol: as §2, §3

RSK2 = assay: Immunoblotting of RSK2 protein levels in COLO 205; format: cell-based; details: 5 days of exposure to 0.1 µM SC-1
Protocol: Since SC-1 inhibited RSK2 kinase activity, we first determined if RSK2 protein levels were altered.
as §1, with “Visualization of specific bands was accomplished with an alkaline phosphatase-labeled secondary anti-immunoglobulin antibody and the ECF Chemifluorescent reagent (GE Amersham).” left out

HCT-15 = assay: Limiting dilution tumorigenicity with Matrigel co-injection; format: in vivo, NOD.SCID mice; parameters: key to Tumorigenicity: Y indicates increased tumor formation or increased time to appearance or both.; Y ^%: Y indicates increased tumor formation when Matrigel was co-injected
Text: To explore the lack of a tumorigenic effect for SC-1 treated HCT-15 cells, the limiting dilution tumorigenicity assay was repeated with the addition of Matrigel to the injected cells (10, 100, 1000, and 10000 cells per injection). A protein support such as Matrigel may provide anchoring, a substrate for angiogenesis, and growth factors. […] For SC-1 treated cells co-injected with Matrigel, 5 of 5 mice had tumor formation over the 99 day observation period at the 10 cell inoculum (Figure 1).
Six week old female NOD.SCID mice were randomly assigned to each of 20 treatment arms (n = 5/group). Treated and control colon tumor lines were enzymatically harvested and counted prior to dilution in RPMI 1640 (at 10, 100, 1,000, 10,000 cells/inoculum) for subcutaneous injection into the axillary region using a volume of […]. Positive control groups were established such that tumor formation occurred in all mice in approximately one week thus confirming that all tumor lines studied were tumorigenic. Cell inocula for the positive control groups ranged from 1×10^6 to 2.5×10^6. Cell viability of the cell stocks was assessed by trypan blue exclusion prior to dilution for injection and was routinely found to be >95%. Tumor formation was monitored weekly using caliper measurements and the tumor mass was calculated as weight in mg = 1/2×(tumor length)×(tumor width)^2. All experiments were terminated at 120 days or when tumor weight exceeded 2000 mg for any individual mouse. In selected studies, tumor cells were resuspended in Matrigel (50% concentration, BD Biosciences) prior to injection.

Inhibitory activity on kinase (CHK2): no effect | Inhibitory activity on kinase (Aurora kinase B): no effect | Inhibitory activity on kinase (CHK1): no effect
SMILES: Cc1cc(Nc2ncc3c(n2)N(C)C(=O)N(c2cc(NC(=O)c4cccc(C(F)(F)F)c4)ccc2C)C3)n(C)n1 [SC-1]
phospho-ERK 1/2 protein levels relative to total ERK1/2 (phospho-ERK1/2; 0.1 µM SC-1, 5 min): 67±0.06 % of control | phospho-ERK 1/2 protein levels relative to total ERK1/2 (phospho-ERK1/2; 0.1 µM SC-1, 30 min): 56±0.06 % of control | phospho-ERK 1/2 protein levels relative to total ERK1/2 (phospho-ERK1/2; 0.1 µM SC-1, 1 hr): 46±0.06 % of control | phospho-ERK 1/2 protein levels relative to total ERK1/2 (phospho-ERK1/2; 0.1 µM SC-1, 4 hrs): 68±0.10 % of control | OCT4 protein expression (OCT4): increased | Decrease of RSK2 protein levels (RSK2): 33% | Tumor formation (HCT-15; HCT-15, 100, 1000, and 10000 cells per injection with Matrigel): tumors formed in all mice | Tumorigenicity (HCT-15; HCT-15, Matrigel co-injected, summary of SC-1 effects): Y ^% | Tumor formation (take rate) (HCT-15; HCT-15 SC-1 treated, 10 cell inoculum co-injected with Matrigel, 99 day observation): 5 of 5
